Test results: PubChem BioAssay (NCI)
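Exposure lasted 48 hours, with cells grown in 96-well plates and compounds tested at five concentrations. At the TGI there is no net growth.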

Key:
Assay in all cases: growth of human tumour cells (NCI), 48 h
[1] = tested on: COLO 205 colon
[2] = tested on: IGROV1 ovarian
[3] = tested on: CAKI-1 renal
[4] = tested on: OVCAR-8 ovarian
[5] = tested on: MDA-MB-231 breast
[6] = tested on: BT-549 breast
[7] = tested on: SK-MEL-5 melanoma
[8] = tested on: MCF7 breast
[9] = tested on: SN12C renal
[10] = tested on: HCT-116 colon
[11] = tested on: NCI-H460 lung
[12] = tested on: SR leukemia
[13] = tested on: SF-295 CNS
[14] = tested on: HCC-2998 colon
[15] = tested on: OVCAR-3 ovarian
[16] = tested on: LOX IMVI melanoma
[17] = tested on: ACHN renal
[18] = tested on: A549 NSCLC
[19] = tested on: MOLT-4 leukemia
[20] = tested on: U251 CNS
[21] = tested on: SNB-75 CNS
[22] = tested on: PC-3 prostate
[23] = tested on: RXF 393 renal
[24] = tested on: NCI/ADR-RES ovarian
[25] = tested on: UO-31 renal
[26] = tested on: SW-620 colon
[27] = tested on: A498 renal
[28] = tested on: CCRF-CEM leukemia
[29] = tested on: 786-0 renal
[30] = tested on: DU-145 prostate
[31] = tested on: UACC-257 melanoma
[32] = tested on: HL-60(TB) leukemia
[33] = tested on: NCI-H226 lung
[34] = tested on: SF-539 CNS
[35] = tested on: HS 578T breast
[36] = tested on: OVCAR-4 ovarian
[37] = tested on: NCI-H522 lung
[38] = tested on: K-562 leukemia
[39] = tested on: MDA-N
[40] = tested on: HT29 colon
[41] = tested on: NCI-H23 lung
[42] = tested on: TK-10 renal
[43] = tested on: HCT-15 colon
[44] = tested on: RPMI-8226 leukemia
[45] = tested on: SK-MEL-28 melanoma
[46] = tested on: EKVX NSCLC
[47] = tested on: KM12 colon
[48] = tested on: OVCAR-5 ovarian
[49] = tested on: HOP-62 NSCLC
[50] = tested on: MDA-MB-435
[51] = tested on: SNB-19 CNS
[52] = tested on: SF-268 CNS
[53] = tested on: HOP-92 NSCLC
[54] = tested on: SK-OV-3 ovarian
[55] = tested on: M14 melanoma
[56] = tested on: UACC-62 melanoma
[57] = tested on: SK-MEL-2 melanoma
[58] = tested on: MALME-3M melanoma

Compound: O=[N+]([O-])c1ccc2c(c1)Sc1ccccc1N2CCCCCl
- TGI [1]: > 100 µM
- TGI [2]: > 100 µM
- TGI [3]: > 100 µM
- TGI [4]: > 100 µM
- TGI [5]: > 100 µM
- TGI [6]: > 100 µM
- TGI [7]: > 100 µM
- TGI [8]: > 100 µM
- TGI [9]: > 100 µM
- TGI [10]: > 100 µM
- TGI [11]: > 100 µM
- TGI [12]: > 100 µM
- TGI [13]: > 100 µM
- TGI [14]: > 100 µM
- TGI [15]: > 100 µM
- TGI [16]: > 100 µM
- TGI [17]: > 100 µM
- TGI [18]: > 100 µM
- TGI [19]: > 100 µM
- TGI [20]: > 100 µM
- TGI [21]: > 100 µM
- TGI [22]: > 100 µM
- TGI [23]: > 100 µM
- TGI [24]: > 100 µM
- TGI [25]: > 100 µM
- TGI [26]: > 100 µM
- TGI [27]: > 100 µM
- TGI [28]: > 100 µM
- TGI [29]: > 100 µM
- TGI [30]: > 100 µM
- TGI [31]: > 100 µM
- TGI [32]: > 100 µM
- TGI [33]: > 100 µM
- TGI [34]: > 100 µM
- TGI [35]: > 100 µM
- TGI [36]: > 100 µM
- TGI [37]: > 100 µM
- TGI [38]: > 100 µM
- TGI [39]: > 100 µM
- TGI [40]: > 100 µM
- TGI [41]: > 100 µM
- TGI [42]: > 100 µM
- TGI [43]: > 100 µM
- TGI [44]: > 100 µM
- TGI [45]: > 100 µM
- TGI [46]: > 100 µM
- TGI [47]: > 100 µM
- TGI [48]: > 100 µM
- TGI [49]: > 100 µM
- TGI [50]: > 100 µM
- TGI [51]: > 100 µM
- TGI [52]: > 100 µM
- TGI [53]: > 100 µM

Compound: CC12OC1(C)C1C(=O)OCC1C2=O (stereo not given)
- TGI [1]: > 100 µM
- TGI [2]: > 100 µM
- TGI [3]: 71.5 µM
- TGI [4]: > 100 µM
- TGI [54]: > 100 µM
- TGI [5]: > 100 µM
- TGI [6]: > 100 µM
- TGI [7]: > 100 µM
- TGI [8]: > 100 µM
- TGI [9]: 55.4 µM
- TGI [10]: > 100 µM
- TGI [11]: > 100 µM
- TGI [12]: 69.2 µM
- TGI [13]: > 100 µM
- TGI [14]: > 100 µM
- TGI [15]: > 100 µM
- TGI [16]: > 100 µM
- TGI [17]: > 100 µM
- TGI [18]: > 100 µM
- TGI [20]: > 100 µM
- TGI [21]: > 100 µM
- TGI [22]: > 100 µM
- TGI [23]: 84.6 µM
- TGI [55]: > 100 µM
- TGI [24]: > 100 µM
- TGI [25]: > 100 µM
- TGI [26]: > 100 µM
- TGI [27]: > 100 µM
- TGI [28]: 36 µM
- TGI [29]: > 100 µM
- TGI [30]: > 100 µM
- TGI [31]: > 100 µM
- TGI [32]: 54.3 µM
- TGI [33]: > 100 µM
- TGI [34]: > 100 µM
- TGI [35]: 94.1 µM
- TGI [36]: > 100 µM
- TGI [37]: 27.9 µM
- TGI [38]: 72.4 µM
- TGI [56]: > 100 µM
- TGI [57]: > 100 µM
- TGI [39]: > 100 µM
- TGI [40]: > 100 µM
- TGI [41]: > 100 µM
- TGI [42]: > 100 µM
- TGI [43]: > 100 µM
- TGI [44]: > 100 µM
- TGI [58]: 69.7 µM
- TGI [45]: > 100 µM
- TGI [47]: > 100 µM
- TGI [48]: > 100 µM
- TGI [49]: > 100 µM
- TGI [50]: > 100 µM
- TGI [51]: > 100 µM
- TGI [52]: > 100 µM
- TGI [53]: > 100 µM

Compound: CC(=O)O[C@H]1CC2C(C3CCC(C(C)CCC(=O)O)[C@]31C)[C@H](OC(C)=O)C[C@@H]1CC3(CC[C@]21C)OOC1(CC[C@]2(C)C4C[C@H](OC(C)=O)[C@]5(C)C(C(C)CCC(=O)O)CCC5C4[C@H](OC(C)=O)C[C@@H]2C1)OO3 (stereo not given in full)
- TGI [1]: 4.24 µM
- TGI [2]: 4.25 µM
- TGI [3]: 5.15 µM
- TGI [4]: 4.97 µM
- TGI [54]: 11.6 µM
- TGI [5]: 3.85 µM
- TGI [6]: 4.11 µM
- TGI [7]: 3.11 µM
- TGI [8]: 12.3 µM
- TGI [9]: 6.02 µM
- TGI [10]: 3.85 µM
- TGI [12]: 9.55 µM
- TGI [13]: 4.72 µM
- TGI [14]: 3.8 µM
- TGI [15]: 3.53 µM
- TGI [16]: 3.11 µM
- TGI [17]: 3.44 µM
- TGI [18]: 5.19 µM
- TGI [19]: 13.1 µM
- TGI [20]: 2.59 µM
- TGI [22]: 3.85 µM
- TGI [55]: 8.31 µM
- TGI [24]: 26.7 µM
- TGI [25]: 3.32 µM
- TGI [26]: > 100 µM
- TGI [28]: 9.87 µM
- TGI [29]: 9.32 µM
- TGI [30]: 4.48 µM
- TGI [31]: 4.68 µM
- TGI [32]: 3.65 µM
- TGI [33]: 4.21 µM
- TGI [35]: 4.1 µM
- TGI [36]: 9.84 µM
- TGI [37]: 3.03 µM
- TGI [38]: > 100 µM
- TGI [57]: 3.64 µM
- TGI [39]: 5.91 µM
- TGI [40]: > 100 µM
- TGI [41]: 4.08 µM
- TGI [42]: 6.8 µM
- TGI [43]: 6.39 µM
- TGI [44]: 14.7 µM
- TGI [58]: 3.13 µM
- TGI [45]: > 100 µM
- TGI [46]: 9.67 µM
- TGI [47]: 3.17 µM
- TGI [48]: 3.5 µM
- TGI [49]: 3.97 µM
- TGI [50]: 4.31 µM
- TGI [51]: > 100 µM
- TGI [52]: 4.01 µM
